The source of these data is ChEMBL document CHEMBL1140871, “Diaryl-dithiolanes and -isothiazoles: COX-1/COX-2 and 5-LOX-inhibitory, *OH scavenging and anti-adhesive activities” (Bioorg Med Chem, 2009).

pIC50: −log10 of the molar value.

Series [1] in a line: Inhibition of 5LOX in bovine polymorphonuclear leucocytes assessed as leukotriene B4 formation. The note with it: Bos taurus. In kind it is cell-based.
In series [2] the test system is MONO-MAC-6. In words: Inhibition of TNF-alpha-stimulated adhesion of human MM6 cells to BAEC at 30 uM by static assay relative to control. In kind it is functional.
Series [3] has as its target T1, Prostaglandin G/H synthase 1 (Bos taurus, UniProt O62664).
T1 sequence (O62664 whole entry): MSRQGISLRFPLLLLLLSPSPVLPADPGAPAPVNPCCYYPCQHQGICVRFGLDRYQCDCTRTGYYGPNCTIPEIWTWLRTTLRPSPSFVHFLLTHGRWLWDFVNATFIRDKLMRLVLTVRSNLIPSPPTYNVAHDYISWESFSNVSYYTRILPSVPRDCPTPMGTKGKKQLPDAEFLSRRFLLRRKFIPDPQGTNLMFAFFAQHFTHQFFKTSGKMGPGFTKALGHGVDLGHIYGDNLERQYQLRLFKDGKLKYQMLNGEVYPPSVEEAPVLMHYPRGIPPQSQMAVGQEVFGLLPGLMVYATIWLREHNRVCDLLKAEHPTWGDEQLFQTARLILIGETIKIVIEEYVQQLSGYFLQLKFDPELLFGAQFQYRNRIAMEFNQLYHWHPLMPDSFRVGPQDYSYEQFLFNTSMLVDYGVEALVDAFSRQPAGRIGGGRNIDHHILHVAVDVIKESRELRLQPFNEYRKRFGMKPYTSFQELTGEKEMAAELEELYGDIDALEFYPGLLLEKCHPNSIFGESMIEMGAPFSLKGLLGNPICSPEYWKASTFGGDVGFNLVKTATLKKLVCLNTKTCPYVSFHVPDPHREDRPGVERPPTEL
Description: Inhibition of COX1 in bovine platelets assessed as formation of 12-hydroxyheptadecatrienoic acid by HPLC

The target of series [4] is T2, Prostaglandin G/H synthase 2 (Homo sapiens, UniProt P35354).
T2 sequence (P35354 whole entry): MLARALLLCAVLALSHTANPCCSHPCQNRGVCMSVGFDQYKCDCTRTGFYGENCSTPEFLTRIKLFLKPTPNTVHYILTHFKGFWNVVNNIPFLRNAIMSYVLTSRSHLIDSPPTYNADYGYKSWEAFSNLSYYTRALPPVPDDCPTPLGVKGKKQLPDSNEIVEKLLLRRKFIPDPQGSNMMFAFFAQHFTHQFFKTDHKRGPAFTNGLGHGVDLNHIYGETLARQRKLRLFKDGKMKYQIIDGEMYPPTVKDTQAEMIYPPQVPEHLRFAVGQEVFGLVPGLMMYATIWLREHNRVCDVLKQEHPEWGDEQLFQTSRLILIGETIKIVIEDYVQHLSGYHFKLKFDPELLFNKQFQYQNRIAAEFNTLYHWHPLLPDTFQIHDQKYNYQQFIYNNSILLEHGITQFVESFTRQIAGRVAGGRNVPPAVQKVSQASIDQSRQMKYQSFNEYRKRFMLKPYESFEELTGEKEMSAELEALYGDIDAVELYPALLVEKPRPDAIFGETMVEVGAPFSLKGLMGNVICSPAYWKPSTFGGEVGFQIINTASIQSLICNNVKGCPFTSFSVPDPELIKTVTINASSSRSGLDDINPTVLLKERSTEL
In words: Inhibition of COX2 in LPS-stimulated human blood.

The subject of series [5] is MONO-MAC-6. Kind of series: Inhibition of TNF-alpha-stimulated adhesion of human MM6 cells to BAEC at 100 uM by static assay relative to control. Format: functional.
The species named for another series is Bos taurus. The note with it: 10 uM.
In series [6] the test system is MONO-MAC-6. In words: Inhibition of TNF-alpha-stimulated adhesion of human MM6 cells to BAEC at 40 uM by static assay relative to control. The following applies: MONO-MAC-6, read-out: INH.
Series [7] is described as follows: Cytotoxicity against BALB/c mouse polymorphonuclear leukocytes assessed as cell viability after 6 hrs by trypan blue exclusion assay. The following applies: read-out: Activity.
The test system of series [8] is Mus musculus. Kind of series: Effect on compound 48/80-induced leukocyte recruitment in BALB/c mouse peritonitis model assessed as reduction in polymorphonuclear leucocyte count in peritoneal cavity at 50 mg/kg, ip administered 1 hr before compound 48/80 challenge. In kind it is functional. Details: scale not given: the % may be the effect or the level left. The following applies: route intraperitoneal.

Series [9] concerns Mus musculus. In words: Reduction of CD11b protein expression on neutrophils in BALB/c mouse compound 48/80-induced peritonitis model at 50 mg/kg, ip administered 1 hr before compound 48/80 challenge. Details: scale not given: the % may be the effect or the level left. In kind it is functional. The note with it: route intraperitoneal.

Description for Bos taurus: Inhibition of 5LOX in bovine polymorphonuclear leucocytes assessed as leukotriene B4 formation at 10 uM

Turning to `CC1(C)Cc2c(-c3ccccc3)c(-c3ccc(Cl)cc3)c(CC(=O)O)n2C1` [LICOFELONE], the values for the pIC50 in series [1] and in [3] were 6.72 and 6.70, respectively. In addition, the inhibition at 30 µM in the series on MONO-MAC-6 [2] turned out to be 56%.
Regarding `Cc1ccc(-c2ssc(=S)c2-c2ccc(Cl)cc2)cc1`, the values for the pIC50 in [4], in series [1] and in [3] were 4.30, under 4.30 and 8.22, respectively.
In the case of `Cc1ccc(-c2cnsc2-c2ccc(Cl)cc2)cc1`, the pIC50 (as a rule, the negative decadic logarithm of the IC50, by convention in mol/L) in series [4] was under 4.30; in series [1], 4.30; in series [3], 7.40.
As to `Oc1ccc(-c2ssc(=S)c2-c2ccc(O)cc2)cc1`, the pIC50 was under 4.30 in series [4], 5.22 in series [1] and 4.70 in series [3]. For the same molecule, the inhibition at 100 µM in the series on MONO-MAC-6 [5] was 54%.
As to `COc1ccc(-c2cnsc2-c2ccc(OC)cc2)cc1`, the negative-log IC50 (pIC50) in series [4] was 6.10; in series [1] it was 4.70; in series [3], 8.52.
With `CS(=O)(=O)c1ccc(-c2c(-c3ccccc3)ssc2=O)cc1`, the figures for the pIC50 in series [4], in series [1] and in [3] were under 4.30, under 4.30 and 5.10, respectively.
With `COc1ccc(-c2cnsc2-c2ccc(Cl)cc2)cc1`, the pIC50 in series [1] is 4.30; in [3], 7.15.
As for `Oc1ccc(-c2cnsc2-c2ccc(O)cc2)cc1`, the pIC50 was under 4.30 in [4], under 4.30 in [1] and 6.00 in series [3].
`CS(=O)(=O)c1ccc(-c2ssc(=O)c2-c2ccccc2)cc1`: the pIC50 in series [4] was 5.96; in [1], under 4.30; in [3] it was 5.10. Also, the inhibition in the series listed under Bos taurus amounted to 13%.
Take `Cc1ccc(-c2c(-c3ccc(Cl)cc3)ssc2=O)cc1`: the pIC50 in series [4] was under 4.30; in series [1], under 4.30; in series [3], 6.70.
For the molecule `COc1ccc(-c2ssc(=S)c2-c2ccc(OC)cc2)cc1`, the pIC50 in series [4] was 4.70; in series [1], 5.00; in series [3] it was 7.52.
As to `CS(=O)(=O)c1ccc(-c2c(-c3ccccc3)ssc2=S)cc1`, the pIC50 was under 4.30 in series [4], under 4.30 in series [1] and 4.70 in [3]. Also, the inhibition at 100 µM in the series on MONO-MAC-6 [5] was 38%.
For the molecule `Cc1ccc(-c2cc(C(F)(F)F)nn2-c2ccc(S(N)(=O)=O)cc2)cc1` [CELECOXIB], the inhibition at 40 µM with MONO-MAC-6 [6] is 85%.
For `CS(=O)(=O)c1ccc(-c2ssc(=S)c2-c2ccc(F)cc2)cc1`, the pIC50 in series [4] is under 4.30; in series [1], 4.70; in series [3], under 4.30. The same molecule showed an inhibition at 100 µM in the series with MONO-MAC-6 [5] of 85%.
For the molecule `CS(=O)(=O)c1ccc(-c2ssc(=S)c2-c2ccccc2)cc1`, the pIC50 in series [4] is under 4.30; in series [1], 5.52. The same molecule registered an inhibition at 100 µM in the series with MONO-MAC-6 [5] of 9%.
Regarding `CC(Cc1ccc(O)c(O)c1)C(C)Cc1ccc(O)c(O)c1` (stereo not drawn) [NORDIHYDROGUAIARETIC ACID], the figures for the pIC50 in series [4], in series [1] and in series [3] were under 4.30, 6.00 and 4.30, respectively.
The matching figures for `Cc1ccc(-c2c(-c3ccc(Cl)cc3)ssc2=S)cc1`: under 4.30, 4.70 and 5.70.
The matching figures for `CS(=O)(=O)c1ccc(-c2sncc2-c2ccc(F)cc2)cc1`: 5.05, 5.00 and 4.30.
Turning to `Cc1ccc(-c2ssc(=S)c2-c2ccc(S(C)(=O)=O)cc2)cc1`, the figures for the pIC50 in series [4], in series [1] and in [3] were under 4.30, under 4.30 and 6.22, respectively. The molecule further showed an inhibition at 100 µM with MONO-MAC-6 [5] of 26%.
Take `COc1ccc(-c2sncc2-c2ccc(C)cc2)cc1`: the pIC50 was under 4.30 in series [4], 5.10 in series [1] and 8.00 in series [3].
For the molecule `O=C(O)Cc1ccccc1Nc1c(Cl)cccc1Cl` [DICLOFENAC], in [1], the pIC50 was under 4.30.
Regarding `Cc1ccc(-c2ssc(=O)c2-c2ccc(Cl)cc2)cc1`, the pIC50 in [4] was under 4.30; in series [1], under 4.30; in [3], 7.70.
As for `Cc1ccc(-c2sncc2-c2ccc(Cl)cc2)cc1`, the pIC50 is under 4.30 in series [1] and 6.70 in series [3].
For the molecule `COc1ccc(-c2sncc2-c2ccc(Cl)cc2)cc1`, the pIC50 in series [4] is under 4.30; in [1], 4.70; in series [3], 7.70.
For the molecule `Cc1ccc(-c2c(-c3ccc(S(C)(=O)=O)cc3)ssc2=S)cc1`, the figures for the pIC50 in series [4], in series [1] and in series [3] were 5.05, 5.05 and 5.15, respectively. The molecule further displayed an inhibition at 100 µM with MONO-MAC-6 [5] of 71%. In addition, the viability at 6 h in [7] was 94%. Besides, the Activity with Mus musculus [8] is reported as 49%; in the series on Mus musculus [9], 40%.
With `Clc1ccc(-c2cnsc2-c2ccc(Cl)cc2)cc1`, the values for the pIC50 in series [4] and in series [3] were 5.40 and 7.00, respectively.
In the case of `COc1ccc(-c2ssc(=O)c2-c2ccc(OC)cc2)cc1`, the pIC50 is 6.00 in series [4], under 4.30 in series [1] and 9.52 in [3].
